Here are results for 34 molecules from patent publication US5340833A, “Urokinase inhibitors” (Eisai Co., Ltd., priority 1992, dated 1994).

Where a name gives a salt, the structure may show the parent alone.

The target in this assay is T1, human high molecular weight urokinase (Homo sapiens, UniProt P00749).
T1 construct: human high molecular weight urokinase; purchased American Diagnostica, Greenwich, Conn
The assay is described as follows: Urokinase Direct Assay. Type of assay: biochemical. The note with it: read-out: uPA Direct: percentage of residual urokinase activity relative to inhibitor-free controls; heading: uPA Direct: percentage of residual urokinase activity relative to inhibitor-free controls; inhibitor concentration of 1 mM. How it is done: (i) A direct chromogenic assay in which urokinase cleaves a synthetic tripeptide p-nitroanilide (pNA) urokinase substrate.
Incubations were carried out at 37° C. for approximately 2 hours or until adequate yellow color developed. Color was quantitated by measuring absorbance at 405 nm (A405) using a Titertek Multiskan MCC/340 MK II microtiter plate spectrophotometer.
In the case of `N=C(N)c1cc2c(C=CC3CC3)cccc2s1` [Compound 34, 4-(E/Z-2-Cyclopropylethenyl)benzo[b]thiophene-2-carboxamidine. hydrochloride], the residual urokinase activity at 1000 µM stood at 0.46%. With `N=C(N)c1cc2c(C=C(Br)Br)cccc2s1` [Compound 38, 4-(2,2-Dibromoethenyl)benzo[b]thiophene-2-carboxamidine hydrochloride] the figure was 4.8%.

For `CC(C)(O)C#Cc1cccc2sc(C(=N)N)cc12` [Compound 42, 4-(3-Hydroxy-3-methylbut-1-ynyl)benzo[b]thiophene-2-carboxamidine hydrochloride], the residual urokinase activity at 1000 µM came out at 0.6%. In the case of `COc1ccc(-c2cccc3sc(C(=N)N)cc23)cc1` [Compound 45, 4-(4-Methoxyphenyl)benzo[b]thiophene-2-carboxamidine hydrochloride], the residual urokinase activity at 1000 µM amounted to 6%. Regarding `N=C(N)c1cc2c(-c3ccc([N+](=O)[O-])cc3)cccc2s1` [Compound 46, 4-(4-Nitrophenyl)benzo[b]thiophene-2-carboxamidine hydrochloride], the residual urokinase activity at 1000 µM was determined as 1%. In the case of `N=C(N)c1ccc(-c2cccc3sc(C(=N)N)cc23)cc1` [Compound 47, 4-(4-Carboxamidinophenyl)benzo[b]thiophene-2-carboxamidine bis-hydrochloride], the residual urokinase activity at 1000 µM was 7.6%. Take `N=C(N)c1cc2c(-c3cccc4sc(C(=N)N)cc34)cccc2s1` [Compound 52, Bis-(2-carboxamidinobenzo[b]thien-4-yl) bis-hydrochloride]: the residual urokinase activity at 1000 µM came out at 2.7%. Then `N=C(N)c1cc2c(C(F)(F)F)cccc2s1` [Compound 54, 4-(Trifluoromethyl)benzo[b]thiophene-2-carboxamidine hydrochloride], with 2.4%; and `N=C(N)c1cc2c(C=O)cccc2s1` [Compound 55, 4-Formylbenzo[b]thiophene-2-carboxamidine hydrochloride], with 4.8%; and `COc1cccc2sc(C(=N)N)cc12` [Compound 57, 4-Methoxybenzo[b]thiophene-2-carboxamidine hydrochloride], with 12%.

With `C=CCSc1cccc2sc(C(=N)N)cc12` [Compound 59, 4-(Prop-2-en-1-ylthio)benzo[b]thiophene-2-carboxamidine hydrochloride], the residual urokinase activity at 1000 µM was 1.1%. With `N=C(N)c1cc2c(SCc3ccccc3)cccc2s1` [Compound 60, 4-(Benzylthio)benzo[b]thiophene-2-carboxamidine hydrochloride] the figure was 1.3%; with `N=C(N)c1cc2c(N3CCOCC3)cccc2s1` [Compound 62, 4-(1-Morpholino)benzo[b]thiophene-2-carboxamidine hydrochloride], 3.6%. Then `N=C(N)c1cc2c(C#Cc3ccccc3)cccc2s1` [Compound 76, 4-(Phenylethynyl)benzo[b]thiophene-2-carboxamidine hydrochloride], with 1.1%; and `N=C(N)c1cc2c(-c3ccc(-c4ccc5c(c4)OCO5)o3)cccc2s1` [Compound 79, 4-[5-(Benzo-1,3-dioxolan-5-yl)fur-2-yl]benzo[b]thiophene-2-carboxamidine hydrochloride], with 1.5%; and `N=C(N)c1cc2cc(F)ccc2s1` [Compound 101, 5-Fluorobenzo[b]thiophene-2-carboxamidine hydrochloride], with 12.7%. Then `N=C(N)c1cc2cc(Cl)ccc2s1` [Compound 102, 5-Chlorobenzo[b]thiophene-2-carboxamidine hydrochloride], with 2.9%; and `Cc1ccc2sc(C(=N)N)cc2c1` [Compound 105, 5-Methylbenzo[b]thiophene-2-carboxamidine hydrochloride], with 3.4%; and `CCc1ccc2sc(C(=N)N)cc2c1` [Compound 106, 5 -Ethylbenzo[b]thiophene-2-carboxamidine hydrochloride], with 3.6%.

Consider `CCCc1ccc2sc(C(=N)N)cc2c1` [Compound 107, 5-Propylbenzo[b]thiophene-2-carboxamidine hydrochloride], for which the residual urokinase activity at 1000 µM is 2.6%.

In the case of `CCCCc1ccc2sc(C(=N)N)cc2c1` [Compound 108, 5-Butylbenzo[b]thiophene-2-carboxamidine hydrochloride], the residual urokinase activity at 1000 µM came out at 3.4%.

`CC(C)CCc1ccc2sc(C(=N)N)cc2c1` [Compound 110, 5-(3-Methylbutyl)benzo[b]thiophene-2-carboxamidine hydrochloride]: the residual urokinase activity at 1000 µM was 4.2%. With `N=C(N)c1cc2cc(CCC3CC3)ccc2s1` [Compound 112, 5-(2-Cyclopropylethyl)benzo[b]thiophene-2-carboxamidine hydrochloride] the figure was 3.3%. For `N=C(N)c1cc2cc(CCO)ccc2s1` [Compound 113, 5-(2-Hydroxyethyl)benzo[b]thiophene-2-carboxamidine hydrochloride], the residual urokinase activity at 1000 µM came to 2.9%. With `C=C(C)c1ccc2sc(C(=N)N)cc2c1` [Compound 115, 5-(1-Methylethenyl)benzo[b]thiophene-2-carboxamidine hydrochloride] the figure was 1.2%; with `CC=Cc1ccc2sc(C(=N)N)cc2c1` [Compound 116, 5-(E/Z-Prop-1-enyl)benzo[b]thiophene-2-carboxamidine hydrochloride], 1.6%.

With `CCC=Cc1ccc2sc(C(=N)N)cc2c1` [Compound 117, 5-(E/Z-But-1-enyl)benzo[b]thiophene-2-carboxamidine hydrochloride], the residual urokinase activity at 1000 µM turned out to be 1.1%. With `CCC(C)=Cc1ccc2sc(C(=N)N)cc2c1` [Compound 118, 5-(E/Z-2-Methylbut-1-enyl)benzo[b]thiophene-2-carboxamidine hydrochloride] the figure was 1.2%; with `CC(C)C=Cc1ccc2sc(C(=N)N)cc2c1` [Compound 119, 5-(E/Z-3-Methylbut-1-enyl)benzo[b]thiophene-2-carboxamidine hydrochloride], 4.9%; with `C#Cc1ccc2sc(C(=N)N)cc2c1` [Compound 123, 5-(Ethynyl)benzo[b]thiophene-2-carboxamidine hydrochloride], 2.5%. Then `N=C(N)c1cc2cc(-c3cccnc3)ccc2s1` [Compound 125, 5-(Pyrid-3-yl)benzo[b]thiophene-2-carboxamidine hydrochloride], with 3.6%. Then `N=C(N)c1cc2cc(-c3cccs3)ccc2s1` [Compound 127, 5-(Thien-2-yl)benzo[b]thiophene-2-carboxamidine hydrochloride], with 1.1%; and `N=C(N)c1cc2cc(C(F)(F)F)ccc2s1` [Compound 129, 5-(Trifluoromethyl)benzo[b]thiophene-2-carboxamidine hydrochloride], with 8.2%; and `N=C(N)c1cc2cc(C=O)ccc2s1` [Compound 130, 5-Formylbenzo[b]thiophene-2-carboxamidine hydrochloride], with 6.8%.
